Legend:
Format in all cases: cell-based
HL-60(TB) = test: NCI 60 cell line screen (SRB), Leukemia
RPMI-8226 = test: NCI 60 cell line screen (SRB), Leukemia
EKVX = test: NCI 60 cell line screen (SRB), Non-Small Cell Lung Cancer
NCI-H226 = test: as above
NCI-H23 = test: as above
NCI-H322M = test: as above
NCI-H460 = test: as above
NCI-H522 = test: as above
COLO 205 = test: NCI 60 cell line screen (SRB), Colon Cancer
HCT-116 = test: NCI 60 cell line screen (SRB), Colon Cancer
HCT-15 = test: NCI 60 cell line screen (SRB), Colon Cancer
KM12 = test: NCI 60 cell line screen (SRB), Colon Cancer
SW-620 = test: NCI 60 cell line screen (SRB), Colon Cancer
HCC-2998 = test: NCI 60 cell line screen (SRB), Colon Cancer
SF-268 = test: NCI 60 cell line screen (SRB), CNS Cancer
SF-295 = test: NCI 60 cell line screen (SRB), CNS Cancer
SNB-75 = test: NCI 60 cell line screen (SRB), CNS Cancer
LOX IMVI = test: NCI 60 cell line screen (SRB), Melanoma
MALME-3M = test: NCI 60 cell line screen (SRB), Melanoma; details: PG=0

CC1=C(C=Cc2cccc(C=CC3=C(C)C4CCC(C)C5CCC6(C)OOC45C(O3)O6)c2)OC2OC3(C)CCC4C(C)CCC1C24OO3 (stereo not drawn) [VII-f]
Log10TGI (HL-60(TB); PG=0): −6.71 log10M | Log10GI50 (HL-60(TB); PG=+50): −6.71 log10M | Log10GI50 (HL-60(TB); Table IV (LC50, PG=−50)): >−4.00 log10M | Log10TGI (RPMI-8226; PG=0): −6.21 log10M | Log10GI50 (RPMI-8226; PG=+50): −6.21 log10M | Log10GI50 (RPMI-8226; Table IV (LC50, PG=−50)): >−4.00 log10M | Log10TGI (EKVX; PG=0): −4.58 log10M | Log10GI50 (EKVX; PG=+50): −6.21 log10M | Log10GI50 (EKVX; Table IV (LC50, PG=−50)): >−4.00 log10M | Log10TGI (NCI-H226; PG=0): >−4.00 log10M | Log10GI50 (NCI-H226; PG=+50): −4.61 log10M | Log10GI50 (NCI-H226; Table IV (LC50, PG=−50)): >−4.00 log10M | Log10TGI (NCI-H23; PG=0): −4.36 log10M | log10 GI50 or LC50 (see conditions) (NCI-H23; PG=+50): −5.32 log10M | log10 GI50 or LC50 (see conditions) (NCI-H23; Table IV (LC50, PG=−50)): >−4.00 log10M | Log10TGI (NCI-H322M; PG=0): −4.39 log10M | Log10GI50 (NCI-H322M; PG=+50): −6.05 log10M | Log10TGI (NCI-H460; PG=0): >−4.00 log10M | Log10 GI50 or Log10 LC50 (NCI-H460; PG=+50): −6.03 log10M | Log10TGI (NCI-H522; PG=0): >−4.00 log10M | Log10GI50 (NCI-H522; PG=+50): −6.07 log10M | Log10GI50 (NCI-H522; Table IV (LC50, PG=−50)): >−4.00 log10M | Log10TGI (COLO 205; PG=0): −5.93 log10M | Log10GI50 (COLO 205; PG=+50): −6.61 log10M | Log10GI50 (COLO 205; Table IV (LC50, PG=−50)): −5.30 log10M | Log10TGI (HCT-116; PG=0): >−4.00 log10M | Log10 GI50 (PG=+50) or Log10 LC50 (PG=−50), as given per row condition (HCT-116; PG=+50): −6.12 log10M | Log10 GI50 (PG=+50) or Log10 LC50 (PG=−50), as given per row condition (HCT-116; Table IV (LC50, PG=−50)): >−4.00 log10M | Log10TGI (HCT-15; PG=0): −4.82 log10M | log10 GI50 (PG=+50) or LC50 (PG=−50), per row condition (HCT-15; PG=+50): −6.13 log10M | log10 GI50 (PG=+50) or LC50 (PG=−50), per row condition (HCT-15; Table IV (LC50, PG=−50)): >−4.00 log10M | Log10TGI (KM12; PG=0): >−4.00 log10M | Log10GI50 (KM12; PG=+50): −6.23 log10M | Log10GI50 (KM12; Table IV (LC50, PG=−50)): >−4.00 log10M | Log10TGI (SW-620; PG=0): >−4.00 log10M | Log10GI50 (SW-620; PG=+50): −5.90 log10M | Log10TGI (HCC-2998; PG=0): >−4.00 log10M | Log10GI50 (HCC-2998; PG=+50): −5.59 log10M | Log10TGI (SF-268; PG=0): >−4.00 log10M | Log10GI50 (SF-268; PG=+50): −5.70 log10M | Log10TGI (SF-295; PG=0): >−4.00 log10M | Log10GI50 (SF-295; PG=+50): −5.25 log10M | Log10 GI50 (PG=+50) or LC50 (PG=−50) (SNB-75; PG=+50): −5.84 log10M | Log10 GI50 (PG=+50) or LC50 (PG=−50) (SNB-75; Table IV (LC50, PG=−50)): >−4.00 log10M | Log10TGI (LOX IMVI; PG=0): >−4.00 log10M | Log10GI50 (LOX IMVI; PG=+50): −5.79 log10M | Log10GI50 (LOX IMVI; Table IV (LC50, PG=−50)): >−4.00 log10M | Log10TGI (MALME-3M): −4.82 log10M
